Source: patent US6288036A, “Bradykinin type peptides” (priority 1993, dated 2001)
*1 amine or outer side, *2 acyl side, *3 side chain or, on linkers, in order; H or OH if unused. Where a SMILES comes first, the peptide text is derived from it. Where no end group is shown, it is not given here. [ ]: non-standard residue; d: D form. The star is where a group is joined. X3 = O=C([C@@H]1C[C@H](Oc2ccc([N+](=O)[O-])cc2)CN1[*:1])[*:2]; X2 = O=C([C@@H]1C[C@H](Oc2ccccc2[N+](=O)[O-])CN1[*:1])[*:2]; Pro(cis-4-OPh) = O=C(O)[C@@H]1C[C@H](Oc2ccccc2)CN1; X1 = O=C([C@@H]1C[C@H](Sc2ccccc2)CN1[*:1])[*:2]; cisHyp = O=C(O)[C@@H]1C[C@H](O)CN1; Hyp = O=C(O)[C@@H]1C[C@@H](O)CN1; Cyclohexylmethyl = C1CCC(C*)CC1; dTic = O=C(O)[C@H]1Cc2ccccc2CN1

Columns and labels:
[1] = cited from earlier work
[2] = anesthetized rat, intra-aortic vs intravenous administration; cited from earlier work
[3] = biological target: T1, bradykinin receptor (Cavia porcellus, UniProt O70526); assay: 3H-Bradykinin binding assay, guinea pig terminal ileum homogenate; details: competition with 3H-bradykinin (~0.3 nM), guinea pig terminal ileum membranes, 90 min ambient temperature
T1 construct: from tissue; host or cells: guinea pig terminal ileum, washed membrane homogenate
T1 sequence (O70526 1-372): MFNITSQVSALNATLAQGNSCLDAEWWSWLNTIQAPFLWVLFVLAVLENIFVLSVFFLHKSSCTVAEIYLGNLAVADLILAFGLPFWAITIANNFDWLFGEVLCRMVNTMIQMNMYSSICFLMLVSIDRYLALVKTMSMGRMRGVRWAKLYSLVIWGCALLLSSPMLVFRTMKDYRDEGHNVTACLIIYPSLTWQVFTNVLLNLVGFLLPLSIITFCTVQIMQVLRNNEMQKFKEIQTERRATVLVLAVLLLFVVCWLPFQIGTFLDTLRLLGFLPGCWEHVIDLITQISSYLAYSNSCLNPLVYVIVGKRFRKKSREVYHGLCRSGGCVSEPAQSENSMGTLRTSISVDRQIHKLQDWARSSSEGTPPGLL
Text: Binding of ^3 H-Bradykinin was preformed using the method of D. C. Manning, […], and […]. Pharmacol. Exp. Ther., (1986),237 504. The tissues used in the binding assay were terminal ileum from male Hartley guinea pigs (150-350 g). After dissection, tissues were placed in 20 vol of ice-cold buffer A (25 Mm TES containing 0.2 g/L of 1,10-phenanthroline adjusted to Ph 6.8 with ammonium hydroxide) and homogenized using a Ploytron Tissumizer at setting 6 for 15 sec. The homogenate was centrifuged at 50,000×g for 10 min, the supernatant discarded, and the pellet resuspended in ice-cold buffer A by homogenization with the Polytron. Each tissue was homogenized and centrifuged three times. The final pellet was resuspended in buffer A containing bovine serum albumin (1 g/L) and Bacitracin (0.14 g/L) to a final volume of 170 Ml/g of the original tissue weight. The binding assay consisted of 1 Ml in 12×75 mm polypropylene tubes: 50 uL ^3 H-bradykinin (20,000 dpm, ~0.3 Nm in the final assay volume), […] displacing drug in buffer A, and 750 Ul tissue homogenate. […] Tubes were incubated for 90 min at ambient temperature. The assays were terminated by filtration over Whatman GF/B glass fiber filters that had been pretreated for 2 hours with polyethyleneimine (2 g/L) using a Brandel Tissue Harvester, followed by washing with 4×1 Ml aliquots of ice-cold 50 Mm Tris, Ph 7.4. Filters were dissolved in Ready-Safe Fluor (Beckman) for at least 90 min before quantitation by liquid scintillation spectrometry. Kd values were determined using saturation binding and analysis by […]. Pharmacol. Methods, (1985), 213)], followed by LIGAND [[…], Anal. Biochem., (1980), 220]. Ki values were determined using competitive analysis followed by EBDA and LIGAND. The following test results were obtained.

[4] = biological target: T2, bradykinin receptors on intestinal (ileal longitudinal) smooth muscle (Cavia porcellus, UniProt O70526); assay: Bradykinin antagonist activity on guinea pig ileal longitudinal smooth muscle (contraction, Schild analysis); assay type: cell-based; details: antagonism of bradykinin-induced contraction, guinea pig ileum longitudinal muscle, read-out: pA2 (converted)
T2 construct: The longitudinal muscle was separated from the underlying circular muscle; from tissue; host or cells: guinea pig ileal longitudinal smooth muscle strips
T2 sequence (O70526 1-372): T1 sequence (O70526 1-372)
Experimental: Determination of Bradykinin Antagonist Activity
Guinea pig intestine was removed and placed in a Petri dish containing Tyrodes solution and cut into 3-4 cm segments. The longitudinal muscle was separated from the underlying circular muscle using a cotton applicator (Paton and Zar, J. Physiol. (1968), 194:13). Muscle strips were connected to isometric force-displacement transducers (Grass or Gould) coupled to a physiograph and placed in tissue baths containing Tyrode's solution at 37° C. Each preparation was suspended under a resting tension of 2 g.
After equilibration of the tissues, appropriate volumes of bradykinin solutions were cumulatively added to the 10 Ml tissue baths to increase the concentration of bradykinin in the bath step-by-step without washing out after each single dose. Higher concentrations were added only after the preceding contraction had reached a steady value. […] Antagonism of bradykinin responses in the presence of antagonist were determined by repeating the cumulative addition procedure for bradykinin after the tissue has been exposed to the antagonist for 5 minutes. Three or four differentconcentrations of antagonist are studied sequentially in the same preparations. Responses were expressed as a percentage of the maximum contraction elicited by bradykinin in the absence of antagonist. pA2 values were calculated by Schild analysis.

Q: Which results are given for “RPPGFSPFR [bradykinin, Arg-Pro-Pro-Gly-Phe-Ser-Pro-Phe-Arg]”?
A: half life in the systemic circulation [1]: less than 30 seconds; destruction on a single passage through the pulmonary circulation [2]: 98-99%

Q: Which Ki [3] does the source give for `CCO[C@@H]1C[C@@H](C(=O)N[C@@H](CCCNC(=N)N)C(=O)O)N(C(=O)[C@H]2Cc3ccccc3CN2C(=O)[C@H](CO)NC(=O)[C@H](Cc2ccccc2)NC(=O)CNC(=O)[C@@H]2C[C@@H](O)CN2C(=O)[C@@H]2CCCN2C(=O)[C@H](CCCNC(=N)N)NC(=O)[C@H](N)CCCNC(=N)N)C1` [D-Arg-Arg-Pro-4Hyp-Gly-Phe-Ser-D-Tic-(Hydroxyproline trans ethyl ether)-Arg] (H-[dR]RP[Hyp]GFS[dTic][Hyp](Et)R-OH) here?
A: 5.44 nM

Q: What about the Kb [4] of the same compound?
A: 51.3 nM

Q: With `N=C(N)NCCC[C@@H](N)C(=O)N[C@@H](CCCNC(=N)N)C(=O)N1CCC[C@H]1C(=O)N1C[C@H](O)C[C@H]1C(=O)NCC(=O)N[C@@H](Cc1ccccc1)C(=O)N[C@@H](CO)C(=O)N1Cc2ccccc2C[C@@H]1C(=O)N1C[C@@H](Oc2ccc([N+](=O)[O-])cc2)C[C@H]1C(=O)N[C@@H](CCCNC(=N)N)C(=O)O` [D-Arg-Arg-Pro-4Hyp-Gly-Phe-Ser-D-Tic-(hydroxyproline cis 4-nitrophenyl ether)-Arg] (H-[dR]RP[Hyp]GFS[dTic][X3]R-OH) as the compound, how does the Ki [3] read?
A: 3.98 nM

Q: And the Kb [4]?
A: 138 nM

Q: Which Ki [3] does the source give for `CO[C@H]1C[C@@H](C(=O)N[C@@H](CCCNC(=N)N)C(=O)O)N(C(=O)[C@H]2Cc3ccccc3CN2C(=O)[C@H](CO)NC(=O)[C@H](Cc2cccs2)NC(=O)CNC(=O)[C@@H]2C[C@@H](O)CN2C(=O)[C@@H]2CCCN2C(=O)[C@H](CCCNC(=N)N)NC(=O)[C@H](N)CCCNC(=N)N)C1` [D-Arg-Arg-Pro-4Hyp-Gly-Thi-Ser-D-Tic-(hydroxyproline cis methyl ether)-Arg] here?
A: 1.83 nM

Q: And the Kb [4]?
A: 141 nM

Q: Which Ki [3] does the source give for `N=C(N)NCCC[C@@H](N)C(=O)N[C@@H](CCCNC(=N)N)C(=O)N1CCC[C@H]1C(=O)N1C[C@H](O)C[C@H]1C(=O)NCC(=O)N[C@@H](Cc1ccccc1)C(=O)N[C@@H](CO)C(=O)N1Cc2ccccc2C[C@@H]1C(=O)N1C[C@@H](Oc2ccccc2)C[C@H]1C(=O)N[C@@H](CCCNC(=N)N)C(=O)O` [D-Arg-Arg-Pro-4Hyp-Gly-Phe-Ser-D-Tic-(hydroxyproline cis phenyl ether)-Arg] (H-[dR]RP[Hyp]GFS[dTic][Pro(cis-4-OPh)]R-OH) here?
A: 2.51 nM

Q: For `N=C(N)NCCC[C@@H](N)C(=O)N[C@@H](CCCNC(=N)N)C(=O)N1CCC[C@H]1C(=O)N1C[C@H](O)C[C@H]1C(=O)NCC(=O)N[C@@H](Cc1ccccc1)C(=O)N[C@@H](CO)C(=O)N1Cc2ccccc2C[C@@H]1C(=O)N1C[C@@H](Sc2ccccc2)C[C@H]1C(=O)N[C@@H](CCCNC(=N)N)C(=O)O` [D-Arg-Arg-Pro-4Hyp-Gly-Phe-Ser-D-Tic-(hydroxyproline cis phenyl thioether)-Arg] (H-[dR]RP[Hyp]GFS[dTic][X1]R-OH), which Ki [3] is on record?
A: 0.06 nM

Q: And the Kb [4]?
A: 11.2 nM

Q: For `N=C(N)NCCC[C@@H](N)C(=O)N[C@@H](CCCNC(=N)N)C(=O)N1CCC[C@H]1C(=O)N1C[C@H](O)C[C@H]1C(=O)NCC(=O)N[C@@H](Cc1ccccc1)C(=O)N[C@@H](CO)C(=O)N1Cc2ccccc2C[C@@H]1C(=O)N1C[C@@H](Oc2ccccc2[N+](=O)[O-])C[C@H]1C(=O)N[C@@H](CCCNC(=N)N)C(=O)O` [D-Arg-Arg-Pro-4Hyp-Gly-Phe-Ser-D-Tic-(hydroxyproline cis 2-nitrophenyl ether)-Arg] (H-[dR]RP[Hyp]GFS[dTic][X2]R-OH), which Ki [3] is on record?
A: 3.76 nM

Q: And the Kb [4]?
A: 141 nM

Q: With `CCCO[C@@H]1C[C@@H](C(=O)N[C@@H](CCCNC(=N)N)C(=O)O)N(C(=O)[C@H]2Cc3ccccc3CN2C(=O)[C@H](CO)NC(=O)[C@H](Cc2cccs2)NC(=O)CNC(=O)[C@@H]2C[C@@H](O)CN2C(=O)[C@@H]2CCCN2C(=O)[C@H](CCCNC(=N)N)NC(=O)[C@H](N)CCCNC(=N)N)C1` [D-Arg-Arg-Pro-4Hyp-Gly-Thi-Ser-D-Tic-(Hydroxyproline trans propyl ether)-Arg] as the compound, how does the Ki [3] read?
A: 4.85 nM

Q: What about the Kb [4] of the same compound?
A: 138 nM

Q: What does the source list for `CCCO[C@H]1C[C@@H](C(=O)N[C@@H](CCCNC(=N)N)C(=O)O)N(C(=O)[C@H]2Cc3ccccc3CN2C(=O)[C@H](CO)NC(=O)[C@H](Cc2cccs2)NC(=O)CNC(=O)[C@@H]2C[C@@H](O)CN2C(=O)[C@@H]2CCCN2C(=O)[C@H](CCCNC(=N)N)NC(=O)[C@H](N)CCCNC(=N)N)C1` [D-Arg-Arg-Pro-4Hyp-Gly-Thi-Ser-D-Tic-(Hydroxyproline cis propyl ether)-Arg]?
A: Ki [3]: 1.58 nM; Kb [4]: 224 nM

Q: With `N=C(N)NCCC[C@@H](N)C(=O)N[C@@H](CCCNC(=N)N)C(=O)N1CCC[C@H]1C(=O)N1C[C@H](O)C[C@H]1C(=O)NCC(=O)N[C@@H](Cc1ccccc1)C(=O)N[C@@H](CO)C(=O)N1Cc2ccccc2C[C@@H]1C(=O)N1C[C@@H](OCC2CCCCC2)C[C@H]1C(=O)N[C@@H](CCCNC(=N)N)C(=O)O` [D-Arg-Arg-Pro-4Hyp-Gly-Phe-Ser-D-Tic-(hydroxyproline cis cyclohexylmethyl ether)-Arg] (H-[dR]RP[Hyp]GFS[dTic][cisHyp](Cyclohexylmethyl)R-OH) as the compound, how does the Ki [3] read?
A: 13.2 nM

Q: With `N=C(N)NCCC[C@@H](N)C(=O)N[C@@H](CCCNC(=N)N)C(=O)N1CCC[C@H]1C(=O)N1C[C@H](O)C[C@H]1C(=O)NCC(=O)N[C@@H](Cc1cccs1)C(=O)N[C@@H](CO)C(=O)N1Cc2ccccc2C[C@@H]1C(=O)N1C[C@H](OC(=O)Nc2ccccc2)C[C@H]1C(=O)N[C@@H](CCCNC(=N)N)C(=O)O` [D-Arg-Arg-Pro-4Hyp-Gly-Thi-Ser-D-Tic-(Hydroxyproline trans phenyl carbamoyl)-Arg] as the compound, how does the Ki [3] read?
A: 11.5 nM

Q: Which results are given for `CCO[C@H]1C[C@@H](C(=O)N[C@@H](CCCNC(=N)N)C(=O)O)N(C(=O)[C@H]2Cc3ccccc3CN2C(=O)[C@H](CO)NC(=O)[C@H](Cc2ccccc2)NC(=O)CNC(=O)[C@@H]2C[C@@H](O)CN2C(=O)[C@@H]2CCCN2C(=O)[C@H](CCCNC(=N)N)NC(=O)[C@H](N)CCCNC(=N)N)C1` [D-Arg-Arg-Pro-4Hyp-Gly-Phe-Ser-D-Tic-(hydroxyproline cis ethyl ether)-Arg] (H-[dR]RP[Hyp]GFS[dTic][cisHyp](Et)R-OH)?
A: Ki [3]: 4.15 nM; Kb [4]: 110 nM
